One assay relates to MDA-MB-231 cells. The assay can be described thus: Cell viability assay (CCK-8), IC50. As to conditions: Homo sapiens, 6 days, medium replenished every 2 days. Type of assay: cell-based. The method, then: (§1) Human breast cancer cell lines MDA-MB-231 and SUM-159, and human ovarian cancer cell lines OVCAR5 and SKOV3 were obtained from the American Type Culture Collection (ATCC). MDA-MB-231 cells were cultured in L-15 medium with 10% fetal bovine serum (FBS), incubated at 37 °C in a humidified incubator without additional CO2. SUM-159 cells were maintained in Dulbecco’s modified Eagle’s medium (DMEM) containing 10% FBS, and OVCAR5 and SKOV3 cells were incubated in Roswell Park Memorial Institute (RPMI)-1640 medium with 10% FBS and cultured at 37 °C in a humidified incubator containing 5% CO2.
(§2) Cell viability assay was performed as described before. Briefly, 2500/well of breast or ovarian cancer cells were seeded into a 96-well plate; grown overnight; treated with indicated concentration of Olaparib, LY2835219, ZC22, LP-1, GC-24, or cisplatin alone or together for an indicated amount of time; and then incubated with Cell Counting kit-8 (CCK-8) substrate (Dojindo, Kumamoto, Kyushu Island, Japan) for 1–2 h at 37 °C. Cell viability was calculated by the absorbance at 450 nm measured by the GloMax Explorer (Promega, Madison, WI, USA). Cells without treatment were set as 100%, and medium control (no cells) was set as 0%.
(§3) Figure 1 Synthesis strategy and activity assay of the novel compounds targeting both PARP and CDK4/6. (A) Synthesis strategy of the three novel compounds GC-24, LP-1, and ZC-22. (B) IC50 of GC-24, LP-1, and ZC-22 in breast and ovarian cancer cells. Cells were treated with increasing concentrations of GC-24, LP 1, or ZC-22 for 6 days with replenishment of medium every 2 days. Cell proliferation was analyzed by CCK-8 assays. (C) The reagents and conditions used for the chemical synthesis of ZC-22 in this study: (a) Pd(AcO)2, BINAP, CS2CO3, 1,4-Dioxane, 100 °C, 12 h; (b) CF3COOH, DCM, Room temperature, 6 h; (c) HOBt, EDCI, DIPEA, DMF, Room temperature, 12 h. TEXT PRINTED IN THE PICTURE: (B) LP-1: MDA-MB-231 IC50 (μM): >50; SUM-159 IC50 (μM): 7.780; OVCAR5 IC50 (μM): 10.11; SKOV3 IC50 (μM): 10.16 | (B) GC-24: MDA-MB-231 IC50 (μM): 33.77; SUM-159 IC50 (μM): 17.77; OVCAR5 IC50 (μM): 26.08; SKOV3 IC50 (μM): >50 | (B) ZC-22: MDA-MB-231 IC50 (μM): 3.608; SUM-159 IC50 (μM): 0.435; OVCAR5 IC50 (μM): 0.758; SKOV3 IC50 (μM): 0.542
(§4) Figure 2 ZC-22 suppresses proliferation of breast and ovarian cancer cells. (A) IC50 of ZC-22, Olaparib, and LY2835219 (Abemaciclib) in breast and ovarian cancer cells. Cells were treated with increasing concentrations of ZC-22, Olaparib, or LY2835219 for 6 days with replenishment of medium every 2 days. Cell proliferation was analyzed by CCK-8 assays. (B) Cell proliferation assay of breast and ovarian cancer cells with indicated treatment. MDA-MB-231 cells were treated with 2 μM Olaparib (OLA) or LY2835219 (LY-2) alone or together (OLA + LY-2) or with ZC-22 alone for 48 or 72 h. SUM-159, OVCAR5, and SKOV3 cells were treated with 0.5 μM OLA or LY-2 alone or together or with ZC-22 alone. Cell proliferation assay was analyzed by CCK-8 assays. Values are means ± SD, n = 3. ns, not significant, * p < 0.05, ** p < 0.01 and *** p < 0.001 for comparisons with the DMSO-treated group using an unpaired t-test. TEXT PRINTED IN THE PICTURE: (A) ZC-22: MDA-MB-231 IC50 (μM): 3.608; SUM-159 IC50 (μM): 0.435; OVCAR5 IC50 (μM): 0.758; SKOV3 IC50 (μM): 0.542 | (A) LY2835219: MDA-MB-231 IC50 (μM): 11.28; SUM-159 IC50 (μM): 0.664; OVCAR5 IC50 (μM): 9.791; SKOV3 IC50 (μM): 1.158 | (A) Olaparib: MDA-MB-231 IC50 (μM): 32.13; SUM-159 IC50 (μM): 19.29; OVCAR5 IC50 (μM): 30.51; SKOV3 IC50 (μM): >50

A further assay has as its system SKOV3 cells. The experiment in a line: Cell viability assay (CCK-8), IC50. Type of assay: cell-based. As to conditions: Homo sapiens, SK-OV-3, 6 days, medium replenished every 2 days. The method, then:
as §1, §2, §3, §4

A further assay concerns SUM-159 cells. The experiment in a line: Cell viability assay (CCK-8), IC50. Type of assay: cell-based. Conditions: Homo sapiens, SUM159, 6 days, medium replenished every 2 days. On the procedure:
as §1, §2, §3, §4

The next assay relates to OVCAR5 cells. The experiment in a line: Cell viability assay (CCK-8), IC50. It is filed as cell-based. As to conditions: Homo sapiens, OVCAR-5, 6 days, medium replenished every 2 days. On the procedure: as §1, §2, §3, §4
Assay [1] deals with MDA-MB-231 xenograft tumors. The assay can be described thus: Breast cancer xenograft mouse model, tumor growth. It is filed as in vivo, mice. Conditions: 1.5 mg/kg cisplatin or 50 mg/kg ZC-22 ip alone or together. The method, then: Six-week-old female athymic nude mice (Homozygous) were purchase from Vital River Laboratories (Beijing, China) and maintained under the guidelines for laboratory animals of Nankai university (NKU). Mice were injected subcutaneously with 2 × 10^6 MDA-MB-231 or 8 × 10^6 OVCAR5 cells. When tumors were 50–100 mm^3 in size, the mice were randomly grouped and treated intraperitoneal (i.p.) with 50 mg/kg of Olaparib, 50 mg/kg of LY2835219, 50 mg/kg of ZC-22, or 1.5 mg/kg of cisplatin alone or in combinations or with the vehicle (PBS containing 10% DMSO and 10% 2-hydroxy-propyl-β-cyclodextrin) every 2 days. Tumor volume was measured every 3–4 days, which was calculated as Length × Width^2/2. At the end of the study, tumor and major organ tissues were harvested by surgery. For histopathological analysis, tissue samples were washed with PBS, fixed in 4% paraformaldehyde (PFA), paraffin-embedded, and sectioned into 7 μm thickness. For Western blot analysis, the tissue samples were dissociated by a tissue-tearor in RIPA buffer containing 1×protease and phosphatase inhibitors.
Figure 4 ZC-22 suppresses growth of breast cancer xenografts. Female NOD-SCID mice were injected subcutaneously with 2 × 10^6 of MDA-MB-231 cells and treated ip daily with 50 mg/kg of Olaparib (OLA) or LY2835219 (LY-2) alone or together (OLA + LY-2) or with ZC-22 alone starting on day 10 after injection of cells when tumors were 50–80 mm^3 in size. Tumor volumes were measured every 2–3 days. […] (B,C) Pictures of (B) and quantification of the size of (C) the MDA-MB-231 xenograft tumors at the end points. […] (E) Quantification of Ki67 (Left) and γH2A.X (Right)-positive cells in immunohistochemical staining of the xenograft tumor tissues. […]
Figure 6 ZC-22 sensitizes breast cancer cells to cisplatin treatment in vivo. […] Tumor volumes were measured every 2–3 days. […] (B,C) Pictures (B) and quantification of the size (C) of the MDA-MB-231 xenograft tumors at the end points. […] (E) Quantification of Ki67 (left) and γH2A.X (right)-positive cells in immunohistochemical staining of the xenograft tumor tissues. […]

The structures appear in SMILES notation.

One may read the IC50 as the point on the concentration scale where inhibition reaches its midpoint.

As to `CC(=O)c1c(C)c2cnc(Nc3ccc(N4CCN(C(=O)c5cc(Cc6n[nH]c(=O)c7ccccc67)ccc5F)CC4)cn3)nc2n(C2CCCC2)c1=O` [GC-24], the IC50 with MDA-MB-231 cells was 33.8 µM; in the assay with SKOV3 cells it was > 50 µM; in the assay with SUM-159 cells it was 17.8 µM; with OVCAR5 cells, 26.1 µM.

In the case of `CN(C)C(=O)c1cc2cnc(Nc3ccc(N4CCN(C(=O)c5cc(Cc6n[nH]c(=O)c7ccccc67)ccc5F)CC4)cn3)nc2n1C1CCCC1` [LP-1], the IC50 with MDA-MB-231 cells is > 50 µM; with SKOV3 cells, 10.2 µM; in the assay on SUM-159 cells, 7.78 µM; in the assay with OVCAR5 cells it was 10.1 µM.

On to `O=C(c1cc(Cc2n[nH]c(=O)c3ccccc23)ccc1F)N1CCN(C(=O)C2CC2)CC1` [Olaparib, reference compound], for which the IC50 with MDA-MB-231 cells is 32.1 µM; in the assay with SKOV3 cells it was > 50 µM; with SUM-159 cells, 19.3 µM; in the assay with OVCAR5 cells, 30.5 µM.

Turning to `N.N.[Cl][Pt][Cl]` [cisplatin], the “growth of the xenograft tumors” value in assay [1] was “effectively inhibit growth of the xenograft tumors”.

Source of the values: PMC8911181, “A Novel CDK4/6 and PARP Dual Inhibitor ZC-22 Effectively Suppresses Tumor Growth and Improves the Response to Cisplatin Treatment in Breast and Ovarian Cancer” (International Journal of Molecular Sciences, 2022).
